# Measurements reported in paper PMC9465178, “Cinnamaldehyde derivatives act as antimicrobial agents against Acinetobacter baumannii through the inhibition of cell division” (Frontiers in Microbiology, 2022).
# “Also recorded” adds a separate entry of the source.
# What was measured:
# [1] = test system: A. baumannii ATCC 19606; experiment: Checkerboard titration MIC with efflux pump inhibitor PAβN; type: cell-based; details: Acinetobacter baumannii, ATCC19606, A. baumannii ATCC 19606
# Method: (§1) To determine if expression of efflux pumps would play a role in the efflux of the cinnamaldehyde derivatives leading to poor antimicrobial activity, interactions between PAβN and the LXC compounds were assessed by checkerboard titration assay. The checkerboard titration assay was performed as previously described ([Chai et al., 2020]). Briefly, PAβN was added in the first row and serially diluted in CaMH broth along the ordinate of the microwell plate while the LXC compounds were serially diluted along the abscissa. Bacterial suspension for A. baumannii ATCC 19606 or AB UW 5075 100 μL/well were added as described for the MIC assay. Bacterial growth was assessed at A600 nm between time 0 and 18 h (Cytation5® Cell Imaging Multi-Mode Reader, Bio-Tek®).
# [2] = molecular target: T1, mammalian tubulin (Sus scrofa, UniProt P02550+P02554); experiment: Mammalian tubulin polymerization assay kit; type: biochemical, porcine; details: compounds at 1 × MIC, 1 mM GTP, 37°C
# T1 construct: purchased Cytoskeleton Inc. BK011P
# T1 sequence (P02550 whole entry): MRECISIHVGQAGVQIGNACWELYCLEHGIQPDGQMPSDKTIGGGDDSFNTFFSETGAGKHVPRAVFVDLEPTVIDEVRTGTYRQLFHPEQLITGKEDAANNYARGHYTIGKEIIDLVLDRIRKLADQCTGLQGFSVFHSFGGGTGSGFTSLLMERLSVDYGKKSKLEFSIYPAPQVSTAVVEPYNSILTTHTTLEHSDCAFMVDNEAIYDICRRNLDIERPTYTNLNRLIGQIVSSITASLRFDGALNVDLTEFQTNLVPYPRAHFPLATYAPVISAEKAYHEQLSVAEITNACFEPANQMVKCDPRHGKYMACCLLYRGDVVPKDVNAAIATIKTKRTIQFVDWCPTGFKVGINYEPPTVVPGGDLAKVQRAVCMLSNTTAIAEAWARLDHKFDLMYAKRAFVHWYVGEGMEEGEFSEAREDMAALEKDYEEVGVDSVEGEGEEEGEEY
# T1 sequence (P02554 whole entry): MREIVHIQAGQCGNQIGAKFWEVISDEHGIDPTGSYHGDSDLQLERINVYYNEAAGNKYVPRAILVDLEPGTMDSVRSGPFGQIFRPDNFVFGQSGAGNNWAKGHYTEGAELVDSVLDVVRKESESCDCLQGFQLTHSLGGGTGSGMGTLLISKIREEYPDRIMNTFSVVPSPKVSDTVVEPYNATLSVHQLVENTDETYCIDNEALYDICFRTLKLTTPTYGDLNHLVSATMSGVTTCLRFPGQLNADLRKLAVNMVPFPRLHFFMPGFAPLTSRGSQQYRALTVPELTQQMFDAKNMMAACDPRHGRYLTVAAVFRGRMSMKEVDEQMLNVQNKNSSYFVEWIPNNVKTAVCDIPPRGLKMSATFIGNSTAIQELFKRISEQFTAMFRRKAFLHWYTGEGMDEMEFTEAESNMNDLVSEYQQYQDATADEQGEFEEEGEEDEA
# Method: The effects of the cinnamaldehyde analogs were analyzed for off-target effects on mammalian tubulin using the protocol as previously described ([Chai et al., 2020]), using a Tubulin Polymerization Assay Kit (Cytoskeleton Inc., BK011P, Denver, CO, United States), following the protocol described by the manufacturer.
# Controls included 20 μM paclitaxel (promoter of polymerization), 20 μM vinblastine (inhibitor of polymerization) and 2.5% (v/v) DMSO (solvent control). The reaction was initiated by the addition of 1 mM GTP at 37°C. The fluorescence was read for 2,000 s using PerkinElmer Enspire® plate reader.
# FIGURE 7 The effect of the LXC compounds on the polymerization of mammalian tubulin. (A–F) The polymerizing activity of the LXC compounds on porcine tubulin was assessed using a commercial Tubulin Polymerization Assay Kit. The LXC compounds at 1 × MIC were pre-incubated with tubulin on ice before the reaction was initiated by the addition of 1 mM GTP. The fluorescence was measured as a function of time at A360 and A420 nm excitation and emission wavelengths, respectively, at the constant temperature of 37°C. DMSO 2.5% (v/v) (brown curves) was used as vehicle control while paclitaxel (polymerization stabilizer; blue curves) and vinblastine (polymerization inhibitor; green curves) at 20 μM each were also included as controls.
# [3] = test system: A. baumannii XDR UW 5075; experiment: Checkerboard titration MIC with efflux pump inhibitor PAβN; type: cell-based, Acinetobacter baumannii; details: for MIC in combination with PAβN: PAβN concentration not given in the sentence
# Method: as §1
# [4] = test system: Escherichia coli ATCC 35218; experiment: Antibacterial activity (MIC), microbroth dilution; type: cell-based; details: Escherichia coli, ATCC35218, read-out: Antibacterial activity (MIC)
# Method: (§2) Reference bacterial strains were obtained from the American Type Culture Collection (ATCC). Vancomycin resistant Enterococcus faecium (VRE 734, wastewater isolate from the Venter Laboratory Collection) was isolated on Bile Esculin agar (Oxoid, Australia) containing 6 μg/mL vancomycin and identified using MALDI-TOF mass spectrometry (Bruker, Preston, Victoria, Australia, Australian Center for Antimicrobial Resistance Ecology). The Pseudomonas aeruginosa WT PAO1 and Escherichia coli with deletions of both acrA and acrB genes encoding drug efflux pumps were obtained from the Venter laboratory stock ([Welch et al., 2010]). The protocol for microbial growth was adopted from the European Committee on Antimicrobial Susceptibility Testing (EUCAST) ([European Committee for Antimicrobial Susceptibility Testing, 2016]).
# (§3) Non-fastidious bacteria and clinical isolates were maintained in Mueller Hinton (MH) broth (Acumedia, United Kingdom) supplemented with 15% (v/v) glycerol (Chem-Supply, Australia), cultured on Mueller Hinton (MH) agar (Acumedia, United Kingdom) plated and incubated at 37°C. Fastidious bacteria were maintained in Brain Heart Infusion (BHI) broth (Acumedia, United Kingdom) supplemented with 15% (v/v) glycerol at −80°C. The fastidious bacteria were cultured on MH agar plates supplemented with 5% (v/v) lysed horse blood and 3% (v/v) fetal bovine serum and incubated at 30°C in the presence of 5% CO2. Drug susceptibility assays were carried out with the non-fastidious cultures grown in cation-adjusted Mueller Hinton (CaMH) broth (Becton Dickinson, France). Streptococcus pyogenes was grown in CaMH broth supplemented with 5% (v/v) lysed horse blood and 3% (v/v) fetal bovine serum whereas Enterococcus faecium was grown in BHI broth.
# (§4) The minimum inhibitory concentrations (MICs) for all six compounds were determined using the microbroth dilution protocol as per EUCAST with an inoculum of approximately […] in an exponential growth phase ([European Committee for Antimicrobial Susceptibility Testing, 2016]). Bacterial suspension, 100 μL/well, was added to 100 μL/well of drug dilutions, then incubated for 18 h at 37°C. Fastidious bacterial suspensions were instead incubated at 30°C in the presence of 5% CO2. Bacterial growth was assessed by measuring the change in A600 nm between time 0 and 18 h (Cytation5® Cell Imaging Multi-Mode Reader, Bio-Tek®). Levofloxacin was used as the positive control. Assays were completed in duplicate in at least three independent experiments.
# [5] = test system: HepG2 (ATCC HB-8065) cells; experiment: RealTime-Glo MT cell viability assay; type: cell-based; details: 24 h
# Method: The effects of the cinnamaldehyde analogs were analyzed for off-target effects on mammalian cells using the protocol as previously described ([Chai et al., 2020]) with the following modifications. In vitro cytotoxicity was assessed in HepG2 (ATCC HB-8065) cells using the RealTime-Glo™ MT Cell Viability Assay Kit (Promega) as described previously ([Wang et al., 2017]). The LXC compounds were tested at 1 × and 2 × MIC using a final DMSO concentration of 2% (v/v) in the assay. […] The luminescence signal was read at 5-min intervals over 24 h in a Cytation5® Cell Imaging Multi-Mode Reader (Bio-Tek®), at 37°C in the presence of 5% CO2.
# FIGURE 8 The LXC compounds are generally non-toxic at a concentration of 1 × MIC. (A–F) Real-time liver cell viability measurements for HepG2 after treatment with 1 × (pink line) and 2 × (brown line) MIC values. […] Cell viability was measured every 5 min for 24 h at 37°C and 5% CO2 on a Cytation5® Cell Imaging Multi-Mode Reader using the RealTime-Glo™ MT Cell Viability Assay reagent. The results are presented in mean ± SEM (hourly SEM data was presented).
# [6] = test system: A. baumannii ATCC 19606; experiment: MIC, microbroth dilution (EUCAST); type: cell-based, Acinetobacter baumannii; details: Acinetobacter baumannii, ATCC19606, 18 h
# Method: as §2, §3, §4
# [7] = test system: A. baumannii XDR UW 5075; experiment: MIC, microbroth dilution (EUCAST); type: cell-based, Acinetobacter baumannii; details: Acinetobacter baumannii, XDRUW5075, 18 h
# Method: as §2, §3, §4
# [8] = A. baumannii XDR UW 5075, +PAβN 50 μg/mL
# [9] = Acinetobacter baumannii, XDRUW5075
# [10] = Acinetobacter baumannii, XDRUW5075, A. baumannii XDR UW 5075, +PAβN 100 μg/mL, read-out: MIC
# [11] = Acinetobacter baumannii, XDRUW5075, A. baumannii XDR UW 5075, +PAβN 200 μg/mL, read-out: MIC
SMILES,MIC ([1]; +PAβN 0 μg/mL) [µg/mL],MIC ([1]; +PAβN 50 μg/mL) [µg/mL],MIC ([1]; +PAβN 100 μg/mL) [µg/mL],MIC ([1]; +PAβN 200 μg/mL) [µg/mL],Effect on tubulin polymerization [2],"MIC [3, 8] [µg/mL]","MIC [3, 9] [µg/mL]","MIC [3, 10] [µg/mL]","MIC [3, 11] [µg/mL]",MIC [4] [µg/mL],"Cytotoxicity, HepG2 cell viability ([5]; 2 × MIC)",MIC [6] [µg/mL],MIC [7] [µg/mL],MIC in combination with PAβN ([3]; A. baumannii XDR UW 5075) [µg/mL],"Cytotoxicity, HepG2 cell viability ([5]; 1 × MIC)"
Cc1nc2ccccc2n1C(=O)/C=C/c1ccc(F)cc1 [Compound 2],128,128,32,16,devoid of tubulin polymerization activity,>128,> 128,64,64,> 256,cytotoxicity was also observed,128,> 128,–,–
Cc1nc2ccccc2n1C(=O)/C=C/c1ccccc1 [Compound 1],128,128,64,32,undesirable inhibitory activity,>128,> 128,128,64,> 256,cytotoxicity was also observed,128,> 128,–,–
COc1ccc(/C=C/C(=O)n2c(C)nc3ccccc32)cc1OC [Compound 5],256,128,8,8,devoid of tubulin polymerization activity,>128,> 128,64,32,> 256,–,256,> 128,32,displayed cytotoxicity
Cc1nc2ccccc2n1C(=O)/C=C/c1ccc(Cl)cc1 [Compound 3],128,128,8,8,undesirable inhibitory activity,>128,> 128,128,64,> 256,cytotoxicity was also observed,128,> 128,–,–
Cc1nc2ccccc2n1C(=O)/C=C/c1ccc(Br)cc1 [Compound 4],32,32,8,8,undesirable inhibitory activity against tubulin,>128,> 128,128,64,> 256,devoid of undesirable toxicity,32,> 128,–,–
Cc1nc2ccccc2n1C(=O)/C=C/c1ccc(Cl)cc1Cl [Compound 6],64,32,16,8,devoid of tubulin polymerization activity; also recorded: lack of activity against the tubulin counter-target,>128,> 128,32,32,> 256,devoid of hemolytic activity and cytotoxicity against mammalian cells in vitro; also recorded: devoid of undesirable toxicity,64,> 128,32,–
